Laboratory results taken from patent publication US12138256B2, “Treatment of cardiopulmonary disorders” (Bayer Aktiengesellschaft, priority 2021, dated 2024).
“And” between values parts separate entries of the source, which are not always exact repeats. Equal entries are not always repeated. Where two headings read alike, the source gives them in different places.

Experiments:
[1] = Protein binding, minipig plasma (fraction unbound); type: in vitro ADME
From the text: (§1) The distribution of a test substance between Transil® (phosphatidylcholine lipid bilayers immobilized on silica beads) and plasma is a characteristic feature of any pharmaceutical compound and is dependent on its extent of binding to plasma proteins. By comparing the distribution between Transil® and buffer with the distribution between Transil® and plasma of any species of interest, the unbound fraction in the plasma of the respective animal species can be calculated in vitro. The respective plasma and buffer concentrations were determined via a radioactivity analysis. A detailed description of the method and its validation was published by Schuhmacher et al. (2).

[2] = tested on: plasma proteins; test: Protein binding via Transil assay, dog plasma; type: in vitro ADME; details: dog plasma
From the text: as §1

[3] = tested on: thromboxane analog U46619 induced PAH in minipigs with ODQ or L-NAME pretreatment; test: PAH minipig model under oxidative stress / low NO (pretreatment by ODQ or L-NAME); type: in vivo, Göttingen minipig; set-up: PAP / BP: unit not given beside the values; details: for BP / PAP: 30 μg/kg nominal dose inhaled
Procedure: To simulate conditions of oxidative stress or low NO concentrations as assumed to be present in different cardiovascular disorders, comparative example 11 was evaluated with and without pretreatment by ODQ (inhibitor of sGC) or L-NAME (NOS inhibitor). […] In contrast, the effects of Ventavis® under conditions of oxidative stress or low NO concentrations were not enhanced. In addition, also under these pathophysiological conditions the duration of action of comparative example 11 was much longer compared to Ventavis®.

[4] = tested on: Caco-2 cells; test: Caco-2 permeability test (C-5.1); type: in vitro ADME, human; details: 2 μM
Procedure: The in vitro permeation of a test compound across a Caco-2 cell monolayer is a well-established assay system to predict the permeability from the gastro-intestinal tract (1). The permeability of the compounds of the present invention in such Caco-2 cells was determined as described below:
Human caco-2 cells were seeded on 24-well insert plates and were allowed to grow for 14-16 days. For permeability studies, the test compounds were dissolved in DMSO and diluted to the final test concentration of 2 μM with transport buffer [Hanks' Buffered Salt Solution, Gibco/Invitrogen, further supplemented with glucose and HEPES]. For determination of the apical to basolateral permeability (PappA-B), the test compound solution was added to the apical side of the cell monolayer and transport buffer to the basolateral side of the monolayer; for determination of the basolateral to apical permeability (PappB-A), the test compound solution was added to the basolateral side of the cell monolayer and transport buffer to the apical side of the monolayer. Samples were taken from the donor compartment at the beginning of the experiment to confirm mass balance. After an incubation of 2 h at 37° C., samples were taken from both compartments. Samples were analyzed by LC-MS/MS, and the apparent permeability coefficients were calculated. Lucifer Yellow permeability was assayed for each cell monolayer to ensure cell monolayer integrity, and the permeability of Atenolol (low permeability marker) and Sulfasalazine (marker for active excretion) was determined for each batch as quality control.

For `O=C(O)c1ccc(CCN(CCc2ccccc2OCc2ccc(-c3ccc(C(F)(F)F)cc3)cc2Cl)[C@H]2CCCc3nc(C(=O)O)ccc32)cc1` [comparative example 11, (5S)-5-{[2-(4-carboxyphenyl)ethyl][2-(2-{[3-chloro-4′-(trifluoromethyl)[biphenyl]-4-yl]methoxy}phenyl)ethyl]amino}-5,6,7,8-tetrahydroquinoline-2-carboxylic acid], the fraction unbound ([1]; Minipig (female) plasma, read-out: Fraction unbound) was 0.00348, the fraction unbound ([1]; plasma (Transil beads), minipig plasma, read-out: plasma fu (fraction unbound)) was 0.00348 and the “fraction unbound, times lower than comparative example 1” value [2] was 10 times. For the same molecule, the BP ([3]; L-NAME pretreatment, Time 170) was 103.0 and 135.0 and 123.0, the PAP ([3]; L-NAME pretreatment, Time 170) was 39.5 and 36.2 and 34.6 and the BP ([3]; L-NAME pretreatment, Time 180) was 104.0 and 139.0 and 127.0. The PAP ([3]; L-NAME pretreatment, Time 180) was 38.9 and 29.1 and 30.8, the BP ([3]; L-NAME pretreatment, Time 190) was 104.0 and 137.0 and 127.0 and the PAP ([3]; L-NAME pretreatment, Time 190) was 38.0 and 25.9 and 28.4. The BP ([3]; L-NAME pretreatment, Time 200) was 104.0 and 135.0 and 129.0, the PAP ([3]; L-NAME pretreatment, Time 200) was 36.8 and 24.6 and 28.1 and the BP ([3]; L-NAME pretreatment, Time 210) was 105.0 and 133.0 and 127.0. The PAP ([3]; L-NAME pretreatment, Time 210) was 36.5 and 23.9 and 26.6, the BP ([3]; L-NAME pretreatment, Time 220) was 107.0 and 131.0 and 127.0 and the PAP ([3]; L-NAME pretreatment, Time 220) was 36.6 and 23.8 and 25.5. The BP ([3]; L-NAME pretreatment, Time 230) was 108.0 and 127.0 and 129.0, the PAP ([3]; L-NAME pretreatment, Time 230) was 35.5 and 23.6 and 25.6 and the BP ([3]; L-NAME pretreatment, Time 240) was 106.0 and 128.0. The PAP ([3]; L-NAME pretreatment, Time 240) was 35.0 and 24.0 and 25.0, the BP ([3]; L-NAME pretreatment, Time 250) was 106.0 and 126.0 and 130.0 and the PAP ([3]; L-NAME pretreatment, Time 250) was 34.5 and 23.5 and 24.8. The BP ([3]; L-NAME pretreatment, Time 260) was 107.0 and 126.0 and 130.0, the PAP ([3]; L-NAME pretreatment, Time 260) was 34.6 and 24.2 and 24.7 and the BP ([3]; L-NAME pretreatment, Time 270) was 104.0 and 126.0 and 129.0. The PAP ([3]; L-NAME pretreatment, Time 270) was 34.1 and 24.0 and 24.3, the BP ([3]; L-NAME pretreatment, Time 280) was 103.0 and 125.0 and 129.0 and the PAP ([3]; L-NAME pretreatment, Time 280) was 33.4 and 23.7 and 24.4. The BP ([3]; L-NAME pretreatment, Time 290) was 104.0 and 126.0 and 128.0, the PAP ([3]; L-NAME pretreatment, Time 290) was 34.4 and 23.4 and 24.2 and the BP ([3]; L-NAME pretreatment, Time 300) was 105.0 and 125.0 and 127.0. For the same molecule, the PAP ([3]; L-NAME pretreatment, Time 300) was 34.2 and 24.1 and 24.0, the BP ([3]; L-NAME pretreatment, Time 310) was 103.0 and 125.0 and 128.0 and the PAP ([3]; L-NAME pretreatment, Time 310) was 33.3 and 23.6 and 24.3. For the same molecule, the BP ([3]; L-NAME pretreatment, Time 320) was 104.0 and 125.0 and 126.0, the PAP ([3]; L-NAME pretreatment, Time 320) was 33.8 and 23.1 and 24.0 and the BP ([3]; L-NAME pretreatment, Time 330) was 105.0 and 126.0 and 125.0. For the same molecule, the PAP ([3]; L-NAME pretreatment, Time 330) was 34.1, the BP ([3]; L-NAME pretreatment, Time 340) was 104.0 and 126.0 and 125.0 and the BP ([3]; without pretreatment, Time 170) was 90.0 and 108.0. For the same molecule, the PAP ([3]; without pretreatment, Time 170) was 39.7 and 38.0 and 42.6, the BP ([3]; without pretreatment, Time 180) was 90.0 and 108.0 and the PAP ([3]; without pretreatment, Time 180) was 38.5 and 37.1 and 41.5. For the same molecule, the BP ([3]; without pretreatment, Time 190) was 90.0 and 107.0 and 108.0, the PAP ([3]; without pretreatment, Time 190) was 37.0 and 35.9 and 40.3 and the BP ([3]; without pretreatment, Time 200) was 89.0 and 109.0. For the same molecule, the PAP ([3]; without pretreatment, Time 200) was 36.5 and 35.2 and 39.0, the BP ([3]; without pretreatment, Time 210) was 89.0 and 108.0 and 109.0 and the PAP ([3]; without pretreatment, Time 210) was 35.6 and 34.2 and 38.5. For the same molecule, the BP ([3]; without pretreatment, Time 220) was 88.0 and 110.0 and 108.0, the PAP ([3]; without pretreatment, Time 220) was 34.7 and 33.9 and 36.8 and the BP ([3]; without pretreatment, Time 230) was 87.0 and 108.0. For the same molecule, the PAP ([3]; without pretreatment, Time 230) was 34.8 and 33.4 and 37.1, the BP ([3]; without pretreatment, Time 240) was 87.0 and 109.0 and 108.0 and the PAP ([3]; without pretreatment, Time 240) was 34.5 and 33.6 and 37.0. The BP ([3]; without pretreatment, Time 250) was 86.0 and 110.0 and 109.0, the PAP ([3]; without pretreatment, Time 250) was 34.3 and 33.5 and 36.7 and the BP ([3]; without pretreatment, Time 260) was 87.0 and 109.0 and 110.0. The PAP ([3]; without pretreatment, Time 260) was 34.1 and 33.3 and 36.5, the BP ([3]; without pretreatment, Time 270) was 86.0 and 108.0 and 110.0 and the PAP ([3]; without pretreatment, Time 270) was 34.0 and 33.6 and 36.2. For the same molecule, the BP ([3]; without pretreatment, Time 280) was 88.0 and 109.0, the PAP ([3]; without pretreatment, Time 280) was 34.5 and 33.5 and 35.6 and the BP ([3]; without pretreatment, Time 290) was 88.0 and 108.0 and 110.0. For the same molecule, the PAP ([3]; without pretreatment, Time 290) was 34.7 and 33.6 and 35.5, the BP ([3]; without pretreatment, Time 300) was 86.0 and 107.0 and 111.0 and the PAP ([3]; without pretreatment, Time 300) was 34.1 and 33.2 and 35.4. For the same molecule, the BP ([3]; without pretreatment, Time 310) was 85.0 and 107.0 and 109.0, the PAP ([3]; without pretreatment, Time 310) was 34.0 and 33.6 and 35.1 and the BP ([3]; without pretreatment, Time 320) was 85.0 and 108.0 and 109.0. For the same molecule, the PAP ([3]; without pretreatment, Time 320) was 34.5 and 34.0 and 35.8, the BP ([3]; without pretreatment, Time 330) was 85.0 and 108.0 and 109.0 and the PAP ([3]; without pretreatment, Time 330) was 34.8 and 34.0 and 35.9. The BP ([3]; without pretreatment, Time 340) was 85.0, the “effect on PAP after pretreatment of ODQ or L-NAME” value ([3]; inhaled, comparative example 11 30 μg/kg ND, Ventavis 10 μg/kg nominal dose) was “enhanced decrease of PAP without effects on systemic BP” and the efflux ratio [4] was “does not show an efflux ratio”.
